{"source": "patent US20220089646A1", "about": "(THE UNIVERSITY OF QUEENSLAND, priority 2019, published 2022)", "key": {"KOP": {"biological_target": "KOP (Homo sapiens, UniProt P41145)", "sequence (P41145 whole entry)": "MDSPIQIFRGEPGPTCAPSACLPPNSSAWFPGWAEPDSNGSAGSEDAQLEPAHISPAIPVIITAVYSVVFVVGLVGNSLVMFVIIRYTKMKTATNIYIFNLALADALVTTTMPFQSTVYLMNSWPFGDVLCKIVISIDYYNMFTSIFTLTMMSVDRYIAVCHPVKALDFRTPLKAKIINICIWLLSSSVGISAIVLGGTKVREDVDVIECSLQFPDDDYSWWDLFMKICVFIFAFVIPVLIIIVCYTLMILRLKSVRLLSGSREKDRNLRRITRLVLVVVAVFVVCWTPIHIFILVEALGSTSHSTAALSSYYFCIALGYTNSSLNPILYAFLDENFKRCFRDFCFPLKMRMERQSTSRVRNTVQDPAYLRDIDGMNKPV", "assay": "In vitro cAMP activity at KOP (Table 10)", "format": "cell-based", "details": "cAMP inhibition, four-parameter regression, normalised to U50488H", "method": "(§1) The CP series compounds were assayed as follows: The assay was performed using a 96 well ½ area plate. The different cAMP standard solutions (3 μL/well) were plated in duplicate. The different concentrations of drug (3 μL/well), and control solutions (3 μL/well) were plated in triplicate. Following this, the acceptor bead mixture (3 μL/well) was added to the respective sets—either cAMP standard curve or the treatment. This was covered and incubated on the orbital shaker for 60 minutes at 37° C. Then, the donor bead mixture (10 μL/well) was added to each well. This was incubated at room temperature overnight on the orbital shaker.\n(§2) For DP-11-06 the assay was carried out in the same way as for the CP compounds except it was incubated for 30 mins at 37° C.\n(§3) For the CP series compounds and DP-11-06, the Ensight® Multimode Plate Reader was used to quantify the fluorescence units of each plate. Before reading, each plate was centrifuged at 280 g for 30 seconds. Using GraphPad Prism7® Software, cAMP concentrations were determined by fit spline/LOWESS analysis. The cAMP standard curve was used for interpolation at this point. The cAMP concentrations were then normalized to the highest cAMP concentration recorded and analyzed by one-way ANOVA for multiple comparisons. The IC50 for each compound was then calculated using GraphPad Prism7® with non-linear regression analysis using four parameter curve fitting.\n(§4) The results shown in Table 10 utilized rat plasma. • Note that DP-7-11 and CP5 represent the same compound, and DP-7-12 and CP6 are the same compound. In this regard, a different regression analysis method was adopted on the above cAMP experiments. Particularly, a new non-linear regression (four-parameter) was adopted to better account for hill slope, thereby improving the regression fit."}, "MOP": {"biological_target": "MOP (Homo sapiens, UniProt P35372)", "sequence (P35372 whole entry)": "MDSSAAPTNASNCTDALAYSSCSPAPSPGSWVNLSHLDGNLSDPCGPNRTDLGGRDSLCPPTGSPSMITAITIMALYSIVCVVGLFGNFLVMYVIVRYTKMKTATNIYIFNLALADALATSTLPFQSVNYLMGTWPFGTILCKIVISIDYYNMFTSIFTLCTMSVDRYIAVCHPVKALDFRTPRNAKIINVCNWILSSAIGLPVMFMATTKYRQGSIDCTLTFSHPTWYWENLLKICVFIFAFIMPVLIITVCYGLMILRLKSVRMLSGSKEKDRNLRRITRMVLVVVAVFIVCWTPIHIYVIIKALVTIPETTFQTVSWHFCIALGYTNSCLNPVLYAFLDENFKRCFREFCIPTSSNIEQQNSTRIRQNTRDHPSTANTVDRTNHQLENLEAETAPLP", "assay": "In vitro cAMP activity at MOP (Table 10)", "format": "cell-based", "details": "cAMP inhibition, four-parameter regression", "method": "as §1, §2, §3\n(§5) In this regard, a different regression analysis method was adopted on the above cAMP experiments. Particularly, a new non-linear regression (four-parameter) was adopted to better account for hill slope, thereby improving the regression fit."}, "[1]": {"biological_target": "T1, bovine pancreatic trypsin (Bos taurus, UniProt P00760)", "T1 construct": "from tissue; host or cells: bovine pancreas", "T1 sequence (P00760 24-246)": "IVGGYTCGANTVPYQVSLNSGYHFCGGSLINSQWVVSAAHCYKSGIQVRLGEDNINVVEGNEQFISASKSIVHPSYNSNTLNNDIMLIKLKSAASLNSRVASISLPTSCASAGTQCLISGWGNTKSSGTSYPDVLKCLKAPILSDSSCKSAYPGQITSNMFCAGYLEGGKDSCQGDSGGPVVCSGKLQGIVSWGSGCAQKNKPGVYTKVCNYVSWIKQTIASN", "assay": "Trypsin stability assay (Table 10)", "format": "in vitro ADME", "details": "for half-life at 100 uM: bovine pancreatic trypsin solution; for half-life at 100 uM / half-life: bovine pancreatic trypsin 2.5 μg/mL, 37° C., One Phase Decay, read-out: Stability (t1/2, mins) Trypsin; for Degradation in trypsin: over the 120 minute assay", "excerpt": "(§6) FIG. 20 is a series of graphs showing the stability of selected peptides in a trypsin (left-hand graphs) and plasma (right-hand graphs) stability assay (data normalised to concentration of each peptide at t=0, determined by LCMS, within each substrate; data analysed using One Phase Decay nonlinear regression in Prism software and each experiment performed in triplicate; mean+/−SEM);\nPlasma was collected in house from adult mixed-gender Wistar rats, prepared using 2% EDTA as per standard practice. Peptides were added to rat plasma samples at 37° C. (in a water bath) with final concentrations of 100 uM (1:9 peptide in water:plasma) and a 50 μL sample was immediately taken and precipitated in 150 μL cold acetonitrile (9:1 ACN:water). This sample became the baseline, or t=0 min sample. […] At each time point, the 50 μL of plasma collected was immediately added to cold ACN. Each collected plasma sample in ACN was directly vortexed for 30 seconds and then centrifuged at room temperature (13K rpm, 5 min). 150 μL of the supernatant was taken and directly placed in glass HPLC vials for LCMS analysis.\nThe protocol for the trypsin stability assay was very similar to the plasma stability assay discussed above. The only difference was the use of a trypsin solution (bovine pancreatic trypsin 2.5 μg/mL in NH4HCO3 buffer, pH approx. 8-8.5, 37° C.) instead of rat plasma. Volumes, times and preparation protocols were exactly as mentioned above."}, "[2]": {"assay": "Plasma stability assay (Table 10)", "format": "in vitro ADME", "details": "37° C., 100 uM peptide, One Phase Decay, read-out: Stability (t1/2, mins) Plasma; for half-life at 100 uM: both sexes, Wistar, rat plasma (EDTA); for half-life: rat plasma", "excerpt": "as §6, §4\nPlasma was collected in house from adult mixed-gender Wistar rats, prepared using 2% EDTA as per standard practice. Peptides were added to rat plasma samples at 37° C. (in a water bath) with final concentrations of 100 uM (1:9 peptide in water:plasma) and a 50 μL sample was immediately taken and precipitated in 150 μL cold acetonitrile (9:1 ACN:water). This sample became the baseline, or t=0 min sample. Plasma with peptide was immediately returned to the water bath and subsequent 50 μL samples were taken at 5, 10, 15, 30, 60 and 120 min. At each time point, the 50 μL of plasma collected was immediately added to cold ACN. Each collected plasma sample in ACN was directly vortexed for 30 seconds and then centrifuged at room temperature (13K rpm, 5 min). 150 μL of the supernatant was taken and directly placed in glass HPLC vials for LCMS analysis."}, "Stability in cAMP buffer": {"assay": "Stability in cAMP buffer", "format": "physicochemical", "details": "over 60 minutes", "excerpt": "Select compounds were also screened for stability in cAMP buffer, to assess whether they degrade spontaneously in the cell assay environment, in the absence of cellular metabolic processes."}, "[3]": {"test_system": "bovine pancreatic trypsin", "assay": "bovine pancreatic trypsin 2.5 μg/mL in NH4HCO3 buffer, pH approx. 8-8.5", "details": "37° C., up to 120 min"}, "trypsin": {"test_system": "trypsin", "assay": "stock trypsin solution (1 mg trypsin in 50 mL of 0.1 M NH4HCO3 buffer)", "details": "37° C., up to 24 hours"}, "DOP": {"biological_target": "DOP (Homo sapiens, UniProt P41143)", "sequence (P41143 whole entry)": "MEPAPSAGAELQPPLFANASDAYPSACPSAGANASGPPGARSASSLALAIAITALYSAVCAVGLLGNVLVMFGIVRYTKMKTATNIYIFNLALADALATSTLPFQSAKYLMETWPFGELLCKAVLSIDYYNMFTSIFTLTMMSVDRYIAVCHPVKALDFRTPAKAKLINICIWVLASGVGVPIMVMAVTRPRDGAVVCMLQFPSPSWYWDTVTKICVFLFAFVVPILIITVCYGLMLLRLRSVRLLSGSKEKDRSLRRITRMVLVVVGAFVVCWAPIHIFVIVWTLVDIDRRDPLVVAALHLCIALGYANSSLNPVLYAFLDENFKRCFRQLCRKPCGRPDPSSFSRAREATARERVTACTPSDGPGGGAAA", "assay": "In vitro cAMP activity at DOP (Table 10)", "format": "cell-based", "details": "cAMP inhibition, four-parameter regression", "method": "as §1, §2, §3, §5"}}, "note": "“Also recorded” adds a separate entry of the source. *1 amine or outer side, *2 acyl side, *3 side chain or, on linkers, in order; H or OH if unused. Where a SMILES comes first, the peptide text is derived from it. Bridges are numbered along the chain shown (N, C = ends). [ ]: non-standard residue; d: D form. Phe(4-NO2) = N[C@@H](Cc1ccc([N+](=O)[O-])cc1)C(=O)O; Phe(4-Cl) = N[C@@H](Cc1ccc(Cl)cc1)C(=O)O; NHCH2CMe2S = CC(C)(CN[*:1])S[*:2]; NMeR = CN[C@@H](CCCNC(=N)N)C(=O)O; X1 = CC(C)(CN[*:2])S[*:1]; Sar = CNCC(=O)O", "data": [{"molecule": "CC(C)C[C@H](NC(=O)[C@H](Cc1ccc([N+](=O)[O-])cc1)NC(=O)CN(C)C(=O)[C@@H](N)Cc1ccc(O)cc1)C(=O)N[C@@H](CCCNC(=N)N)C(=O)N(C)[C@@H](CCCNC(=N)N)C(=O)N[C@@H]1CC(=O)NCC(C)(C)SSC[C@H](C(=O)N[C@H](CCCCN)C(N)=O)NC(=O)[C@@H](CCCNC(=N)N)NC1=O", "note": "[CP14, c(Tyr-Sar-(p-NO2-Phe)-Leu-Arg-NMA-D(Asp)-D(Arg)-SSa-D(Lys))] (H-Y[Sar][Phe(4-NO2)]LR[NMeR][dD][dR][dC][dK]-NH2; linker 7-9 via NHCH2CMe2S)", "values": [{"measurement": "EC50", "setting": "KOP", "value": 4.4, "unit": "nM"}, {"measurement": "EC50", "setting": "MOP", "value": "> 10000", "unit": "nM"}, {"measurement": "half-life at 100 uM", "setting": "[1]", "value": 2320, "unit": "min"}, {"measurement": "Degradation in trypsin", "setting": "[1]", "value": "no sign of degradation"}, {"measurement": "half-life at 100 uM", "setting": "[2]", "value": 70.8, "unit": "min"}, {"measurement": "Degradation in cAMP assay buffer", "setting": "Stability in cAMP buffer", "value": "no degradation"}]}, {"molecule": "c(Tyr-Sar(p-NO2-Phe)-Leu-Arg-D(Arg)-SSa-Arg-D(Asp)-Lys", "values": [{"measurement": "not cleaved", "setting": "[3]", "value": "no sign of degradation over the 120 minute assay"}]}, {"molecule": "c(Tyr-Gly-Gly-Phe-D(Asp)-Arg-SSa-Ile-Arg-Pro-Lys)", "values": [{"measurement": "not cleaved", "setting": "trypsin", "value": "Stable up to 6 h; more than 90% remained after 360 minutes"}]}, {"molecule": "c(Tyr-Sar-(p-NO2-Phe)-Leu-Arg-NMA-D(Asp)-D(Arg)-SSa-D(Lys))", "values": [{"measurement": "not cleaved", "setting": "[3]", "value": "no sign of degradation over the 120 minute assay"}]}, {"molecule": "Tyr-Gly-Gly-Phe-Leu-Arg-Arg", "values": [{"measurement": "fragment found", "setting": "trypsin", "value": "DYN A (1-6), 15 min"}]}, {"molecule": "CC(C)C[C@H](NC(=O)[C@H](Cc1ccc(Cl)cc1)NC(=O)CN(C)C(=O)[C@@H](N)Cc1ccc(O)cc1)C(=O)N[C@@H](CCCNC(=N)N)C(=O)N[C@H](CCCNC(=N)N)C(=O)N[C@H]1CSSC(C)(C)CNC(=O)C[C@@H](C(N)=O)NC1=O", "note": "[CP9, c(Tyr-Sar-(p-Cl-Phe)-Leu-Arg-D(Arg)-SSa-Asp)] (H-Y[Sar][Phe(4-Cl)]LR[dR]CD-NH2; linker 7-8 via X1)", "values": [{"measurement": "EC50", "setting": "KOP", "value": 1.8, "unit": "nM"}, {"measurement": "EC50", "setting": "MOP", "value": "> 10000", "unit": "nM"}, {"measurement": "EC50", "setting": "DOP", "value": "> 10000", "unit": "nM"}, {"measurement": "half-life", "setting": "[1]", "value": 49.8, "unit": "min"}, {"measurement": "half-life", "setting": "[2]", "value": 85.5, "unit": "min"}, {"measurement": "Degradation in cAMP assay buffer", "setting": "Stability in cAMP buffer", "value": "no degradation"}]}, {"molecule": "Tyr-Gly-Gly-Phe-Leu-Arg-Arg-Ile-Arg-Pro-Lys", "values": [{"measurement": "fragment found", "setting": "trypsin", "value": "DYN A (1-7), first_seen, initial time point samples; also recorded: DYN A (1-6), first_seen, initial time point samples"}, {"measurement": "not cleaved", "setting": "trypsin", "value": "DYN 1-9 was not observed upon trypsin digestion"}]}, {"molecule": "CC(C)C[C@H](NC(=O)[C@H](Cc1ccc([N+](=O)[O-])cc1)NC(=O)CN(C)C(=O)[C@@H](N)Cc1ccc(O)cc1)C(=O)N[C@@H](CCCNC(=N)N)C(=O)N[C@H](CCCNC(=N)N)C(=O)N[C@@H]1CSSC(C)(C)CNC(=O)C[C@H](C(=O)N[C@@H](CCCCN)C(N)=O)NC(=O)[C@H](CCCNC(=N)N)NC1=O", "note": "[CP13, c(Tyr-Sar(p-NO2-Phe)-Leu-Arg-D(Arg)-SSa-Arg-D(Asp)-Lys] (H-Y[Sar][Phe(4-NO2)]LR[dR][dC]R[dD]K-NH2; linker 7-9 via X1)", "values": [{"measurement": "EC50", "setting": "KOP", "value": 16, "unit": "nM"}, {"measurement": "EC50", "setting": "MOP", "value": "> 10000", "unit": "nM"}, {"measurement": "half-life at 100 uM", "setting": "[1]", "value": 1410, "unit": "min"}, {"measurement": "Degradation in trypsin", "setting": "[1]", "value": "no sign of degradation"}, {"measurement": "half-life at 100 uM", "setting": "[2]", "value": 63.3, "unit": "min"}, {"measurement": "Degradation in cAMP assay buffer", "setting": "Stability in cAMP buffer", "value": "no degradation"}]}, {"molecule": "CC1(C)CNC(=O)C[C@@H](C(=O)N[C@@H](CCCNC(=N)N)C(=O)N[C@@H](CCCNC(=N)N)C(N)=O)NC(=O)[C@H](Cc2ccccc2)NC(=O)CNC(=O)C(NC(=O)[C@@H](N)Cc2ccc(O)cc2)CSS1", "note": "(stereo partly drawn) [CP1, c(Tyr-SSa-Gly-Phe-L-Asp-Arg-Arg)]", "values": [{"measurement": "EC50", "setting": "KOP", "value": 1270, "unit": "nM"}, {"measurement": "EC50", "setting": "MOP", "value": 4530, "unit": "nM"}, {"measurement": "EC50", "setting": "DOP", "value": "> 10000", "unit": "nM"}, {"measurement": "half-life", "setting": "[1]", "value": "< 0.01", "unit": "min"}, {"measurement": "half-life", "setting": "[2]", "value": "< 0.01", "unit": "min"}]}]}
